Laboratory results as given in US7335632B2, “Beta-secretase inhibitors and methods of use thereof” (CoMentis, Inc., priority 2001, dated 2008).

How the values were obtained:
[1] = target: memapsin 2 (Homo sapiens, UniProt P56817); assay: Inhibition of memapsin 2 beta-secretase activity toward fluorogenic substrate FS-2; type: biochemical; conditions: pH 4, 37° C., 20 minutes pre-incubation, substrate FS-2, tight-binding model; read-out: M2 Ki
Experimental: Potency of compounds were determined by measurement of their inhibition of memapsin 2 activity toward a fluorescent substrate. […] Briefly, assays were performed at pH 4, 37° C., by pre-incubation of memapsin 2 enzyme with compound for 20 minutes. Activity measure was initiated by addition of a fluorogenic substrate FS-2 (Bachem Americas, Torrance, Calif.). Fluorescent signal increase over time was measured as a rate of hydrolysis of the peptide substrate.

[2] = target: Cathepsin D (Homo sapiens, UniProt P07339); assay: Inhibition of cathepsin D activity (substrate peptide […], MALDI-TOF); type: biochemical; conditions: pH 4.1, 37 degrees C., substrate NH3-[…]-CO2, MALDI-TOF; read-out: Cath D Ki
Chain of Cathepsin D (P07339 65-412, species assumed): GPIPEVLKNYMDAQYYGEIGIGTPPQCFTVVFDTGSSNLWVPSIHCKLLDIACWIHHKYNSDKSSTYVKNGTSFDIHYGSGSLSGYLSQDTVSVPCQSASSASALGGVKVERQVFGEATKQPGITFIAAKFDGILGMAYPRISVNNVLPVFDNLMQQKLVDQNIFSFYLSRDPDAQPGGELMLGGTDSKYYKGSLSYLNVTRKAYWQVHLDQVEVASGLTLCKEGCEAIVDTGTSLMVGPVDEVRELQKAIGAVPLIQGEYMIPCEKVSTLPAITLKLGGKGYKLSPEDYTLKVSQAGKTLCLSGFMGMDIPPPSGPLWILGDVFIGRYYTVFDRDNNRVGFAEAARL

[3] = target: T1, memapsin 1 (Homo sapiens, UniProt Q9Y5Z0); assay: Inhibition of memapsin 1 beta-secretase activity (substrate peptide […], MALDI-TOF); type: biochemical; conditions: pH 4.1, 37 degrees C., substrate NH3-ELDLAVEFWHDR-CO2, MALDI-TOF; read-out: M1 Ki
T1 sequence (Q9Y5Z0 63-518): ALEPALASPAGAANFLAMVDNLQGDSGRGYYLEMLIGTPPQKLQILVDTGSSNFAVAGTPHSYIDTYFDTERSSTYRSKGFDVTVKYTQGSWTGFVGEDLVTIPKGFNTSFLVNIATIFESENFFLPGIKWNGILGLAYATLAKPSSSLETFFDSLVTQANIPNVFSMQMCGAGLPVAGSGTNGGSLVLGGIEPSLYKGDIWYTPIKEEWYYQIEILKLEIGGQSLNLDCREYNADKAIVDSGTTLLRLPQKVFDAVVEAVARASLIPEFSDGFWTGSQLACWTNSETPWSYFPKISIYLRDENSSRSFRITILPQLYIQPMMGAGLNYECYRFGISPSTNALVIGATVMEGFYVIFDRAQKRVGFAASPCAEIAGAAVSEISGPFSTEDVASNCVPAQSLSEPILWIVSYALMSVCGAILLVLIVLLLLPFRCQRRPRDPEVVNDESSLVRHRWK

[4] = tested on: Aβ production; assay: Cellular Aβ IC50 determination (Aβ40 sandwich ELISA); type: cell-based; conditions: Cricetulus griseus, Chinese hamster ovary cells over-expressing human APP695 with London and Swedish mutations, 24 h
Experimental: The potency of compounds against memapsin 2 activity was determined in a cellular assay of Aβ production. […] Chinese hamster ovary cells that over-express human APP695 with the London and Swedish mutations were seeded in multi-well plates at 10% confluency. Compounds were dissolved in DMSO to concentrations near 1 mM, and diluted into culture media to a final concentration near 4 μM (final 0.4% DMSO). Compounds were diluted serially and applied to cells in multi-well plates 48 h after seeding. Incubation was continued in 5% CO2 at 37 degrees C. for 24 h. Aliquots were removed and assayed for Aβ40 content using a sandwich ELISA (BioSource International). Amount of Aβ40 over the range of concentration of compounds, relative to control incubations, were fit to a 4-parameter IC50 model.

Chain of memapsin 2 (P56817 46-501): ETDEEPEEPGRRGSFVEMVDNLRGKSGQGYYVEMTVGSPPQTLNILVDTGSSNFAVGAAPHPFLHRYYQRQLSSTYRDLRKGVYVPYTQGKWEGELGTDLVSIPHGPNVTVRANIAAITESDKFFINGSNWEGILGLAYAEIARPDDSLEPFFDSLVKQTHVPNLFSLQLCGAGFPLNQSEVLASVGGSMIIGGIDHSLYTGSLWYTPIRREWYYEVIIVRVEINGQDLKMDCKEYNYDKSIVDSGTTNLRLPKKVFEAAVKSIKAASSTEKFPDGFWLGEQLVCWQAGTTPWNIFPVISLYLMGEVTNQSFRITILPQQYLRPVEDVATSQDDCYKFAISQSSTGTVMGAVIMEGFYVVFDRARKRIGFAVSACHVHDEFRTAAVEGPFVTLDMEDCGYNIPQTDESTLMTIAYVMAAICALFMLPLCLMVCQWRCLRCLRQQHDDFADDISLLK

Row | SMILES | Ki [1] | Ki [2] | Ki [3] | IC50 [4]
1 | Cc1csc(COC(=O)N[C@@H](CS(=O)(=O)C2CCCC2)C(=O)N[C@H](CC(C)C)[C@@H](O)C[C@@H](C)C(=O)N[C@@H](C(=O)NCC(C)C)C(C)C)n1 [Structure 58] | < 100 nM | 100 to 1000 nM | 100 to 1000 nM | < 6000 nM
2 | Cc1cc(C)n(COC(=O)N[C@@H](C[S+](C)[O-])C(=O)N[C@@H](CC(C)C)[C@@H](O)C[C@@H](C)C(=O)N[C@H](C(=O)NCC(C)C)C(C)C)n1 (stereo partly shown) [Structure 9] | < 100 nM | 100 to 1000 nM | < 100 nM | < 6000 nM
3 | Cc1csc(COC(=O)N[C@@H](CSC(C)C)C(=O)N[C@H](CC(C)C)[C@@H](O)C[C@@H](C)C(=O)N[C@@H](C(=O)NCC(C)C)C(C)C)n1 [Structure 32] | < 100 nM | < 100 nM | 100 to 1000 nM | < 6000 nM
4 | Cc1csc(COC(=O)N[C@@H](CS(=O)(=O)C(C)C)C(=O)N[C@H](CC(C)C)[C@@H](O)C[C@@H](C)C(=O)N[C@@H](C(=O)NCC(C)C)C(C)C)n1 [Structure 31] | < 100 nM | 100 to 1000 nM | 100 to 1000 nM | 6000 to 100000 nM
5 | CSC[C@H](NC(=O)OCc1nc(C)sc1C)C(=O)N[C@H](CC(C)C)[C@@H](O)C[C@@H](C)C(=O)N[C@@H](C(=O)NCC(C)C)C(C)C [Structure 53] | < 100 nM | < 100 nM | < 100 nM | < 6000 nM
6 | Cc1coc(COC(=O)N[C@@H](CS(C)(=O)=O)C(=O)N[C@@H](CC(C)C)[C@@H](O)C[C@@H](C)C(=O)N[C@H](C(=O)NCC(C)C)C(C)C)n1 [Structure 95] | < 100 nM | 100 to 1000 nM | > 1000 nM | < 6000 nM
7 | CCc1nc(COC(=O)N[C@@H](CS(C)(=O)=O)C(=O)N[C@H](CC(C)C)[C@@H](O)C[C@@H](C)C(=O)N[C@@H](C(=O)NCC(C)C)C(C)C)c(C)s1 [Structure 71] | < 100 nM | 100 to 1000 nM | 100 to 1000 nM | > 100000 nM
8 | CCC(C)SC[C@H](NC(=O)OCc1nc(C)cs1)C(=O)N[C@H](CC(C)C)[C@@H](O)C[C@@H](C)C(=O)N[C@@H](C(=O)NCC(C)C)C(C)C (stereo partly shown) [Structure 66] | < 100 nM | < 100 nM | 100 to 1000 nM | < 6000 nM
9 | Cc1nc(COC(=O)N[C@@H](CS(C)(=O)=O)C(=O)N[C@H](CC(C)C)[C@@H](O)C[C@@H](C)C(=O)N[C@@H](C(=O)NN(C)C)C(C)C)c(C)o1 [Structure 57] | < 100 nM | 100 to 1000 nM | 100 to 1000 nM | < 6000 nM
10 | CSC[C@H](NC(=O)CCn1nc(C)cc1C)C(=O)N[C@H](CC(C)C)[C@@H](O)C[C@@H](C)C(=O)N[C@@H](C(=O)NCC(C)C)C(C)C [Structure 4] | 100 to 1000 nM | < 100 nM | 100 to 1000 nM | 6000 to 100000 nM
11 | CC[C@@H](Cn1nc(C)cc1C)C(=O)N[C@@H](C[S+](C)[O-])C(=O)N[C@@H](CC(C)C)[C@@H](O)C[C@@H](C)C(=O)N[C@@H](C(=O)NCC(C)C)C(C)C (stereo partly shown) [Structure 8] | < 100 nM | 100 to 1000 nM | < 100 nM | < 6000 nM
12 | CCC(CC)S(=O)(=O)C[C@H](NC(=O)OCc1nc(C)cs1)C(=O)N[C@H](CC(C)C)[C@@H](O)C[C@@H](C)C(=O)N[C@@H](C(=O)NCC(C)C)C(C)C [Structure 73] | < 100 nM | 100 to 1000 nM | 100 to 1000 nM | 6000 to 100000 nM
13 | Cc1csc(COC(=O)N[C@@H](CS(C)(=O)=O)C(=O)N[C@H](Cc2ccccc2)[C@@H](O)C[C@@H](C)C(=O)N[C@@H](C(=O)NCC(C)C)C(C)C)n1 [Structure 55] | < 100 nM | < 100 nM | < 100 nM | 6000 to 100000 nM
14 | CSC[C@H](NC(=O)OCc1nc(C)cs1)C(=O)N[C@H](CC(C)C)[C@@H](O)C[C@@H](C)C(=O)N[C@@H](C(=O)NCC(C)C)C(C)C [Structure 17] | < 100 nM | < 100 nM | 100 to 1000 nM | 6000 to 100000 nM
15 | Cc1csc(COC(=O)N[C@@H](CS(C)(=O)=O)C(=O)N[C@H](CC(C)C)[C@@H](O)C[C@@H](C)C(=O)N[C@H](CC(C)C)C(=O)NC(C)C)n1 [Structure 46] | < 100 nM | 100 to 1000 nM | 100 to 1000 nM | < 6000 nM
16 | Cc1csc(COC(=O)N[C@@H](CS(=O)(=O)CC(C)C)C(=O)N[C@H](CC(C)C)[C@@H](O)C[C@@H](C)C(=O)N[C@@H](C(=O)NCC(C)C)C(C)C)n1 [Structure 49] | < 100 nM | 100 to 1000 nM | < 100 nM | > 100000 nM
17 | CCc1nc(COC(=O)N[C@@H](CS(C)(=O)=O)C(=O)N[C@H](CC(C)C)[C@@H](O)C[C@@H](C)C(=O)N[C@@H](C(=O)NCC(C)C)C(C)C)c(C)o1 [Structure 74] | < 100 nM | 100 to 1000 nM | 100 to 1000 nM | < 6000 nM
18 | COC(=O)[C@H](NC(=O)[C@H](C)C[C@H](O)[C@@H](CC(C)C)NC(=O)[C@H](CSC)NC(=O)OCc1nc(C)cs1)C(C)C [Structure 88] | > 1000 nM | 100 to 1000 nM | > 1000 nM | < 6000 nM
19 | CCSC[C@H](NC(=O)OCc1nc(C)cs1)C(=O)N[C@H](CC(C)C)[C@@H](O)C[C@@H](C)C(=O)N[C@@H](C(=O)NCC(C)C)C(C)C [Structure 19] | < 100 nM | < 100 nM | < 100 nM | > 100000 nM
20 | Cc1csc(COC(=O)N[C@@H](CS(C)(=O)=O)C(=O)N[C@H](CC(C)C)[C@@H](O)C[C@@H](C)C(=O)N[C@@H](C(=O)NCC(C)C)c2ccccc2)n1 [Structure 68] | < 100 nM | 100 to 1000 nM | 100 to 1000 nM | 6000 to 100000 nM
21 | CSC[C@H](NC(=O)C(C)Cc1nc(C)cs1)C(=O)N[C@H](CC(C)C)[C@@H](O)C[C@@H](C)C(=O)N[C@@H](C(=O)NCC(C)C)C(C)C (stereo partly shown) [Structure 34] | < 100 nM | < 100 nM | 100 to 1000 nM | < 6000 nM
22 | Cc1csc(COC(=O)N[C@@H](CSC2CCCC2)C(=O)N[C@H](CC(C)C)[C@@H](O)C[C@@H](C)C(=O)N[C@@H](C(=O)NCC(C)C)C(C)C)n1 [Structure 56] | < 100 nM | < 100 nM | 100 to 1000 nM | > 100000 nM
23 | CSC[C@H](NC(=O)OCc1nc(C)cs1)C(=O)N[C@H](CC(C)C)[C@@H](O)C[C@@H](C)C(=O)N[C@H](CC(C)C)C(=O)NC(C)C [Structure 43] | < 100 nM | < 100 nM | 100 to 1000 nM | 6000 to 100000 nM
24 | CSC[C@H](NC(=O)OCc1nc(C)oc1C)C(=O)N[C@H](Cc1ccccc1)[C@@H](O)C[C@@H](C)C(=O)N[C@@H](C(=O)NCC(C)C)C(C)C [Structure 50] | 100 to 1000 nM | < 100 nM | < 100 nM | 6000 to 100000 nM
25 | Cc1nc(COC(=O)N[C@@H](CS(=O)(=O)C(C)C)C(=O)N[C@H](CC(C)C)[C@@H](O)C[C@@H](C)C(=O)N[C@@H](C(=O)NCC(C)C)C(C)C)c(C)o1 [Structure 59] | < 100 nM | 100 to 1000 nM | 100 to 1000 nM | 6000 to 100000 nM
